Columns and labels:
[1] = organism: Rattus norvegicus; test: animal or person; format: functional
[2] = organism: Rattus norvegicus; settings: in vivo, po, 100 mg/kg
[3] = organism: Rattus norvegicus; settings: in vivo, po, 100 mg/kg; remark: listed apart in the source
[4] = organism: Rattus norvegicus; test: animal or person; format: functional; remark: listed apart in the source
[5] = target: Prostaglandin G/H synthase 1 (Homo sapiens, UniProt P23219)
[6] = in vivo; settings: rat, iv, 10 mg/kg
[7] = organism: Rattus norvegicus; test: animal or person; format: functional; remark: listed apart in the source
[8] = organism: Rattus norvegicus; test: animal or person; settings: read-out: Inhibition
[9] = organism: Homo sapiens; test: tissue or blood
[10] = organism: Homo sapiens; test: tissue or blood; remark: listed apart in the source
[11] = organism: Rattus norvegicus; settings: in vivo, po, 100 mg/kg; remark: listed apart in the source
[12] = in vivo; settings: rat, iv, 2 mg/kg
[13] = organism: Rattus norvegicus; settings: in vivo, po, 100 mg/kg; remark: listed apart in the source
[14] = in vivo; settings: rat, iv, 10 mg/kg; remark: listed apart in the source
[15] = organism: Rattus norvegicus; settings: in vivo, po, 100 mg/kg; remark: listed apart in the source
[16] = in vivo; settings: rat, iv, 10 mg/kg; remark: listed apart in the source
[17] = organism: Rattus norvegicus; settings: in vivo, po, 100 mg/kg; remark: listed apart in the source
[18] = organism: Rattus norvegicus; settings: in vivo, po, 16 mg/kg
[19] = organism: Rattus norvegicus; settings: in vivo, po, 16 mg/kg; remark: listed apart in the source
[20] = Rattus norvegicus, read-out: ED50

Chain of Prostaglandin G/H synthase 1 (P23219 whole entry): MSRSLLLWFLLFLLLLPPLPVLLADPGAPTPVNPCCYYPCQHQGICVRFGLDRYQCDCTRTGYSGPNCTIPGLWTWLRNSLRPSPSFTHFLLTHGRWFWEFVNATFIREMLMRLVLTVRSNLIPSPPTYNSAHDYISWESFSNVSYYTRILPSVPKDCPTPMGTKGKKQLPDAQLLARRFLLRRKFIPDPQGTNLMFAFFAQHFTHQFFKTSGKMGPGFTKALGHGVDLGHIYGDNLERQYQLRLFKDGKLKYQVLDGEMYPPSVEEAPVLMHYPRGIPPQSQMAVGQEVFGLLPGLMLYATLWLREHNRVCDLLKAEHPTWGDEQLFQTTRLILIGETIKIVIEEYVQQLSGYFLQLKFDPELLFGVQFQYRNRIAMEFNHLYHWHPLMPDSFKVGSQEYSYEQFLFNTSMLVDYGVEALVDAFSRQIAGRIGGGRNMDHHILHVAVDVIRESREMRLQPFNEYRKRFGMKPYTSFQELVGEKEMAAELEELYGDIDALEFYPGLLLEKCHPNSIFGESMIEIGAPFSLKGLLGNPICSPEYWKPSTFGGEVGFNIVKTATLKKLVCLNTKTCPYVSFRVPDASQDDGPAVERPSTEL

IC50 [5] | SMILES | inhibition in vivo at 2 mg/kg [8] | other results
> 1000 µM | Cc1cncc(-c2nc(C(F)(F)F)cn2-c2ccc(S(N)(=O)=O)cc2)c1 | 96% | ED50 [1, 20]: 7.5 mg/kg; No. of animals with damage [2]: 0; No. of animals with damage [3]: 0; ED50 [4]: 32 mg/kg; half-life [6]: 4.96 h; ED50 [7]: 0.67 mg/kg
> 1000 µM | CS(=O)(=O)c1ccc(-n2cc(C(F)(F)F)nc2-c2ccccn2)cc1 | 100% | IC50 [9]: > 10 µM; IC50 [10]: 0.24 µM
> 1000 µM | NS(=O)(=O)c1ccc(-n2cc(C(F)(F)F)nc2-c2cccnc2)cc1 | 100% | 
84 µM | Cc1ccnc(-c2nc(C(F)(F)F)cn2-c2ccc(S(N)(=O)=O)cc2)c1 | 75% | 
32 µM | CS(=O)(=O)c1ccc(-n2cc(C(F)(F)F)nc2-c2cc3ccccc3cn2)cc1 |  | 
> 1000 µM | Cc1csc(-c2nc(C(F)(F)F)cn2-c2ccc(S(N)(=O)=O)cc2)n1 | 100% | ED50 [1, 20]: 13.4 mg/kg; ED50 [4]: 18.5 mg/kg; ED50 [7]: 0.33 mg/kg
> 1000 µM | CS(=O)(=O)c1ccc(-n2cc(C(F)(F)F)nc2-c2cc(Br)cs2)cc1 | 75% | 
> 100 µM | Cc1ncccc1-c1nc(C(F)(F)F)cn1-c1ccc(S(C)(=O)=O)cc1 | 81% | 
> 1000 µM | Cc1cc(-c2nc(C(F)(F)F)cn2-c2ccc(S(N)(=O)=O)cc2)no1 | 92% | 
> 1000 µM | Cc1ccsc1-c1nc(C(F)(F)F)cn1-c1ccc(S(C)(=O)=O)cc1 | 11% | 
> 100 µM | COc1cncc(-c2nc(C(F)(F)F)cn2-c2ccc(S(C)(=O)=O)cc2)c1 |  | 
> 1000 µM | CS(=O)(=O)c1ccc(-n2cc(C(F)(F)F)nc2-c2cncc(Br)c2)cc1 | 90% | 
> 100 µM | CS(=O)(=O)c1ccc(-n2cc(C(F)(F)F)nc2-c2cccc3c2OCO3)cc1 | 11% | 
> 1000 µM | Cc1ncc(-c2nc(C(F)(F)F)cn2-c2ccc(S(N)(=O)=O)cc2)s1 | 75% | 
> 100 µM | Cc1ccncc1-c1nc(C(F)(F)F)cn1-c1ccc(S(C)(=O)=O)cc1 |  | 
> 100 µM | CS(=O)(=O)c1ccc(-n2cc(C(F)F)nc2-c2cccnc2)cc1 |  | 
> 100 µM | Cc1ccncc1-c1nc(C(F)(F)F)cn1-c1ccc(S(N)(=O)=O)cc1 |  | 
302 µM | Cc1ccc(-c2nc(C(F)(F)F)cn2-c2ccc(S(N)(=O)=O)cc2)nc1 | 100% | 
> 100 µM | Cc1nc(-c2nc(C(F)(F)F)cn2-c2ccc(S(C)(=O)=O)cc2)co1 | 0% | 

The remaining lines, values behind:

SMILES | IC50 [5] | inhibition in vivo at 2 mg/kg [8] | other results
NS(=O)(=O)c1ccc(-n2cc(C(F)(F)F)nc2-c2cncc(Br)c2)cc1 |  | 26% | 
COc1ccc(-c2nc(C(F)(F)F)cn2-c2ccc(S(C)(=O)=O)cc2)cn1 |  | 100% | 
CS(=O)(=O)c1ccc(-n2cc(C(F)(F)F)nc2-c2nccc3ccccc23)cc1 |  | 60% | 
Cc1ccc(-c2nc(C(F)(F)F)cn2-c2ccc(S(N)(=O)=O)cc2)cn1 |  | 100% | 
Cc1nc(-c2nc(C(F)(F)F)cn2-c2ccc(S(N)(=O)=O)cc2)cs1 |  | 100% | ED50 [1, 20]: 13.4 mg/kg; No. of animals with damage [11]: 0; half-life [12]: 3.4 h; No. of animals with damage [2]: 0; ED50 [4]: 14 mg/kg; ED50 [7]: 0.57 mg/kg
Cc1ncccc1-c1nc(C(F)(F)F)cn1-c1ccc(S(N)(=O)=O)cc1 |  | 100% | ED50 [1, 20]: 6.9 mg/kg; ED50 [4]: 18 mg/kg; No. of animals with damage [13]: 0; half-life [14]: 4.85 h; No. of animals with damage [15]: 0; ED50 [7]: 1 mg/kg
Cc1cccc(-c2nc(C(F)(F)F)cn2-c2ccc(S(N)(=O)=O)cc2)n1 |  | 100% | ED50 [1, 20]: 8.2 mg/kg; No. of animals with damage [2]: 0; No. of animals with damage [3]: 0; ED50 [4]: 20.3 mg/kg; ED50 [7]: 0.64 mg/kg
CS(=O)(=O)c1ccc(-n2cc(C(F)(F)F)nc2-c2cnc3ccccc3c2)cc1 |  | 90% | 
Cc1cn(-c2ccc(S(C)(=O)=O)cc2)c(-c2cccnc2)n1 | > 100 µM |  | 
CS(=O)(=O)c1ccc(-n2cc(CO)nc2-c2cccnc2)cc1 | > 1000 µM |  | 
CS(=O)(=O)c1ccc(-n2cc(C#N)nc2-c2cccnc2)cc1 | > 100 µM |  | 
Cc1cccc(-c2nc(C(F)(F)F)cn2-c2ccc(S(C)(=O)=O)cc2)n1 |  | 92% | 
Cc1cccnc1-c1nc(C(F)(F)F)cn1-c1ccc(S(N)(=O)=O)cc1 |  | 100% | 
NS(=O)(=O)c1ccc(-n2cc(C(F)(F)F)nc2-c2cccs2)cc1 |  | 95% | 
Cc1ccnc(-c2nc(C(F)(F)F)cn2-c2ccc(S(C)(=O)=O)cc2)c1 |  | 84% | 
NS(=O)(=O)c1ccc(-n2cc(C(F)F)nc2-c2cccnc2)cc1 | > 100 µM | 19% | 
Cc1ccc(-c2nc(C(F)(F)F)cn2-c2ccc(S(C)(=O)=O)cc2)nc1 |  | 97% | ED50 [4]: 20 mg/kg; ED50 [7]: 1 mg/kg
Cc1cncc(-c2nc(C(F)(F)F)cn2-c2ccc(S(C)(=O)=O)cc2)c1 |  | 75% | 
Cc1cccnc1-c1nc(C(F)(F)F)cn1-c1ccc(S(C)(=O)=O)cc1 |  | 100% | ED50 [1]: 35%; ED50 [7]: 0.3 mg/kg
Cn1cc(-c2nc(C(F)(F)F)cn2-c2ccc(S(C)(=O)=O)cc2)c2ccccc21 |  | 0% | 
CS(=O)(=O)c1ccc(-n2cc(C(F)(F)F)nc2-c2cccnc2)cc1 |  | 100% | ED50 [1, 20]: 5.4 mg/kg; IC50 [9]: 41.6 µM; IC50 [10]: 0.2 µM; No. of animals with damage [2]: 0; ED50 [4]: 8.2 mg/kg; half-life [16]: 11.6 h; No. of animals with damage [17]: 0; ED50 [7]: 0.25 mg/kg
Cc1ccc(-c2nc(C(F)(F)F)cn2-c2ccc(S(C)(=O)=O)cc2)cn1 |  | 93% | ED50 [1, 20]: 41 mg/kg; ED50 [4]: 33 mg/kg; ED50 [7]: 0.2 mg/kg
Cc1nc(-c2nc(C(F)(F)F)cn2-c2ccc(S(C)(=O)=O)cc2)cs1 |  | 73% | 
CS(=O)(=O)c1ccc(-n2cc(C(F)(F)F)nc2-c2cccs2)cc1 |  | 24% | 
CS(=O)(=O)c1ccc(-n2cc(C(F)(F)F)nc2-c2ccccc2)cc1 |  |  | ED50 [1, 20]: 0.15 mg/kg
Cc1ccccc1-c1nc(C(F)(F)F)cn1-c1ccc(S(C)(=O)=O)cc1 |  |  | ED50 [1, 20]: 18 mg/kg
COc1ccc2c(c1)c(CC(=O)O)c(C)n2C(=O)c1ccc(Cl)cc1 [INDOMETHACIN] |  |  | No. of animals with damage [18]: 6; No. of animals with damage [19]: 6; ED50 [7]: 0.1 mg/kg

Reference: ChEMBL document CHEMBL1133620, “Selective cyclooxygenase-2 inhibitors: heteroaryl modified 1,2-diarylimidazoles are potent, orally active antiinflammatory agents” (J Med Chem, 2000)
